Measured values: ChEMBL document CHEMBL4392848, “Proline-based hydroxamates targeting the zinc-dependent deacetylase LpxC: Synthesis, antibacterial properties, and docking studies” (Bioorg Med Chem, 2019)
≈ marks a conversion by molar mass, not a printed value. Calls of active or inactive are those of the source. The calls are words filed in the database; no cut-off is given here.

How the values were obtained:
Klebsiella aerogenes = experiment: Antibacterial activity against Enterobacter aerogenes assessed as diameter of inhibition zone measured after 24 hrs by agar disc diffusion method; format: functional
[1] = molecular target: Matrix metalloproteinase-9 (Homo sapiens, UniProt P14780); experiment: Inhibition of human MMP9 using (7-methoxycoumarin-4-yl)acetyl-Pro-Leu-Gly-Leu-(3-(2,4-dinitrophenyl)-L-2,3-diamino-propionyl)Ala-Arg-NH2 as substrate preincubated for 30 mins followed by substrate addition and measured by fluorescence assay
Matrix metalloproteinase-9, sequence (P14780 whole entry, the tested form may be a part): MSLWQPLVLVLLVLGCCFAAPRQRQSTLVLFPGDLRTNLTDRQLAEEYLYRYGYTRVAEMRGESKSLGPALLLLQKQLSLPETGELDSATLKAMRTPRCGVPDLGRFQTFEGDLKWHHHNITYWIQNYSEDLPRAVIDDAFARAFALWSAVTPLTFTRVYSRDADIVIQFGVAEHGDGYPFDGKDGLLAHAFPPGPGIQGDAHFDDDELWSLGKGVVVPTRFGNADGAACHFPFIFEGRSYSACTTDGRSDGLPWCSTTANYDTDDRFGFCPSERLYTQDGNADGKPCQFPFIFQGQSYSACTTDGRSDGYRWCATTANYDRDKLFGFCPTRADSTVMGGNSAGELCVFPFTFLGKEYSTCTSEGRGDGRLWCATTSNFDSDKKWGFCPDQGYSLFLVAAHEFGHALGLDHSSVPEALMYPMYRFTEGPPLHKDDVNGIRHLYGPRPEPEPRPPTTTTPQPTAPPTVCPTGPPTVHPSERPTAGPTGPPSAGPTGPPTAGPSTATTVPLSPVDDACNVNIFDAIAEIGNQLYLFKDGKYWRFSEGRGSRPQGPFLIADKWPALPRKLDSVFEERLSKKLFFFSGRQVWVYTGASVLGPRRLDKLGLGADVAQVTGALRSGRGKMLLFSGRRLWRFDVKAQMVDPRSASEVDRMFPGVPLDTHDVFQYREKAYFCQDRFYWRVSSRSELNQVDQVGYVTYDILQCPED

Klebsiella oxytoca = experiment: Antibacterial activity against Klebsiella oxytoca assessed as diameter of inhibition zone measured after 24 hrs by agar disc diffusion method; format: functional
Collagenase 3 = Collagenase 3 (Homo sapiens, UniProt P45452); experiment: Inhibition of human MMP13 using (7-methoxycoumarin-4-yl)acetyl-Pro-Leu-Gly-Leu-(3-(2,4-dinitrophenyl)-L-2,3-diamino-propionyl)Ala-Arg-NH2 as substrate preincubated for 30 mins followed by substrate addition and measured by fluorescence assay
Klebsiella pneumoniae = experiment: Antibacterial activity against Klebsiella pneumoniae assessed as diameter of inhibition zone measured after 24 hrs by agar disc diffusion method; format: functional
Escherichia coli [2] = experiment: Antibacterial activity against Escherichia coli BL21(DE3) assessed as diameter of inhibition zone measured after overnight incubation by agar disc diffusion method; format: functional
Escherichia coli [3] = experiment: Antibacterial activity against Escherichia coli BL21(DE3) measured after 20 hrs by microdilution method; format: functional
Pseudomonas aeruginosa = experiment: Antibacterial activity against Pseudomonas aeruginosa assessed as diameter of inhibition zone measured after 24 hrs by agar disc diffusion method; format: functional
Citrobacter freundii = experiment: Antibacterial activity against Citrobacter freundii assessed as diameter of inhibition zone measured after 24 hrs by agar disc diffusion method; format: functional
Neutrophil collagenase = Neutrophil collagenase (Homo sapiens, UniProt P22894); experiment: Inhibition of human MMP8 using (7-methoxycoumarin-4-yl)acetyl-Pro-Leu-Gly-Leu-(3-(2,4-dinitrophenyl)-L-2,3-diamino-propionyl)Ala-Arg-NH2 as substrate preincubated for 30 mins followed by substrate addition and measured by fluorescence assay
Neutrophil collagenase, sequence (P22894 whole entry, the tested form may be a part): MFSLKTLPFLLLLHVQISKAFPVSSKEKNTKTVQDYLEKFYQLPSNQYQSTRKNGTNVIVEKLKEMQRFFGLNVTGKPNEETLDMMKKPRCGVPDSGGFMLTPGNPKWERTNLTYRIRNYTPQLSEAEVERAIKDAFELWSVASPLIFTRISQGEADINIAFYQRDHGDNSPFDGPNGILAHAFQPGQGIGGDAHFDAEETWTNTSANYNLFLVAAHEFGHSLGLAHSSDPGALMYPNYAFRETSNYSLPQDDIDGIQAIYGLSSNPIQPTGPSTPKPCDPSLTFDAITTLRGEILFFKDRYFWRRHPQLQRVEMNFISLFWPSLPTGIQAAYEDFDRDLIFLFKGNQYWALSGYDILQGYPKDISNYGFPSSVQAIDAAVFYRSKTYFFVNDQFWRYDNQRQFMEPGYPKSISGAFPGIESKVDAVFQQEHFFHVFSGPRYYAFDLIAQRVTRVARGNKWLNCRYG

Proteus vulgaris = experiment: Antibacterial activity against Proteus vulgaris assessed as diameter of inhibition zone measured after 24 hrs by agar disc diffusion method; format: functional
Escherichia coli [4] = experiment: Antibacterial activity against Escherichia coli D22 measured after 20 hrs by microdilution method; format: functional; details: D22, 20 h
Escherichia coli [5] = experiment: Inhibition of Escherichia coli LpxC C63A mutant at 200 uM using UDP-3-O-[(R)-3-hydroxymyristoyl]-N-acetylglucosamine as substrate measured after 30 mins by fluorescence based microplate assay
Escherichia coli [6] = experiment: Antibacterial activity against Escherichia coli D22 assessed as diameter of inhibition zone measured after overnight incubation by agar disc diffusion method; format: functional
[7] = molecular target: 72 kDa type IV collagenase (Homo sapiens, UniProt P08253); experiment: Inhibition of human MMP2 using (7-methoxycoumarin-4-yl)acetyl-Pro-Leu-Gly-Leu-(3-(2,4-dinitrophenyl)-L-2,3-diamino-propionyl)Ala-Arg-NH2 as substrate preincubated for 30 mins followed by substrate addition and measured by fluorescence assay
72 kDa type IV collagenase, sequence (P08253 whole entry): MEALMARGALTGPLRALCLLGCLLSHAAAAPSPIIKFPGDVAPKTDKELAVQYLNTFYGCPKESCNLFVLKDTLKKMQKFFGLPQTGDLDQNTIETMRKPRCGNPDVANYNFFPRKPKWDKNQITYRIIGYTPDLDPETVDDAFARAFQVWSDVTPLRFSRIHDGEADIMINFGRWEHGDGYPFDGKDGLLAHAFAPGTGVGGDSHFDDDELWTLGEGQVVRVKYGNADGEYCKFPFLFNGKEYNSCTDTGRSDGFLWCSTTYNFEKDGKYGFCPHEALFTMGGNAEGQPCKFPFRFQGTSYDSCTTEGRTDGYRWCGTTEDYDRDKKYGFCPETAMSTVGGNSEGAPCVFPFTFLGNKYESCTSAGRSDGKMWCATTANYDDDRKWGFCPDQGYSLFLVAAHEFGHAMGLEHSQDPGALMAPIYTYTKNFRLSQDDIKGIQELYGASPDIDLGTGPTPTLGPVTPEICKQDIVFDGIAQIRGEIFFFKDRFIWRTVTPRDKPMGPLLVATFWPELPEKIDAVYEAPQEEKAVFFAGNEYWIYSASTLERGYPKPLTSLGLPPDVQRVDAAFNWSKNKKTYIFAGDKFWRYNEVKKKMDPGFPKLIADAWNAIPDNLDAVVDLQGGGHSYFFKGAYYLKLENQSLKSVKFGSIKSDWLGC

[8] = Inhibition of Escherichia coli LpxC C63A mutant using UDP-3-O-[(R)-3-hydroxymyristoyl]-N-acetylglucosamine as substrate measured after 30 mins by fluorescence based microplate assay
Enterobacter cloacae = experiment: Antibacterial activity against Enterobacter cloacae assessed as diameter of inhibition zone measured after 24 hrs by agar disc diffusion method; format: functional
Proteus mirabilis = experiment: Antibacterial activity against Proteus mirabilis assessed as diameter of inhibition zone measured after 24 hrs by agar disc diffusion method; format: functional
[9] = Selectivity ratio of IC50 for human MMP8 to IC50 for human MMP13; format: ADME
[10] = Selectivity ratio of IC50 for human MMP9 to IC50 for human MMP13; format: ADME
[11] = Selectivity ratio of IC50 for human MMP8 to IC50 for human MMP2; format: ADME
MMP-2/MMP-9 = MMP-2/MMP-9 (Homo sapiens, UniProt P08253+P14780); experiment: Selectivity ratio of IC50 for human MMP9 to IC50 for human MMP2; format: ADME

Row | IC50 [1] | IC50 (Collagenase 3) | MIC (Escherichia coli [3]) | IC50 (Neutrophil collagenase) | MIC (Escherichia coli [4]) | IC50 [7] | IC50 [8] | SMILES | diameter of the inhibition zone (DIZ) (Escherichia coli [2]) | diameter of the inhibition zone (DIZ) (Escherichia coli [6]) | Ki [8] | other results
1 | > 10 µM | 4.32 µM | > 256 µM | > 10 µM | > 256 µM | > 10 µM | > 200 µM | O=C(NO)[C@H]1[C@H](O)[C@H](O)CN1C(=O)c1ccc(C#Cc2ccc(CN3CCOCC3)cc2)cc1 | <6 mm | <6 mm | > 27.6 µM | diameter of the inhibition zone (DIZ) (Klebsiella aerogenes): <6 mm; diameter of the inhibition zone (DIZ) (Klebsiella oxytoca): 8 mm; diameter of the inhibition zone (DIZ) (Klebsiella pneumoniae): <6 mm; diameter of the inhibition zone (DIZ) (Pseudomonas aeruginosa): <6 mm; diameter of the inhibition zone (DIZ) (Citrobacter freundii): <6 mm; diameter of the inhibition zone (DIZ) (Proteus vulgaris): <6 mm; inhibition (Escherichia coli [5]): inactive; diameter of the inhibition zone (DIZ) (Enterobacter cloacae): <6 mm; diameter of the inhibition zone (DIZ) (Proteus mirabilis): <6 mm
2 | 1.8 µM | 0.039 µM | 128 µM (≈ 59.6 µg/mL) | 0.172 µM | 16 µM (≈ 7.45 µg/mL) | 0.032 µM | 2.5 µM | O=C(NO)[C@@H]1[C@H](O)[C@H](O)CN1C(=O)c1ccc(C#Cc2ccc(CN3CCOCC3)cc2)cc1 | <6 mm | 18 mm | 0.34 µM | Ratio IC50 [9]: 4 to 5; Ratio IC50 [10]: 51; Ratio IC50 [11]: 4 to 5; Ratio IC50 (MMP-2/MMP-9): 51
